Source: patent US10214529B2, “Small molecules for the treatment of primary cancer and cancer metastasis” (THE BOARD OF REGENTS OF THE UNIVERSITY OF TEXAS SYSTEM, priority 2015, dated 2019)

Columns and labels:
[1] = test system: MDA-MB-231 human breast cancer cells; test: Transwell cell migration assay; format: cell-based; settings: MDA-MB-231 cells, 18-20 hr
Procedure: (§1) MDA-MB-231 cells were grown in McCoy's 5A Modified Media (Gibco) supplemented with 10% FBS (Hyclone). Py8119 cells were grown in F12K nutrient media (Gibco) supplemented with 5% Fetal Clone II (Fisher Scientific). All cell lines were incubated in a 5% CO2 incubator at 37° C.
Migration assays were performed in transwell membrane filter inserts in 24-well tissue culture plates (BD Biosciences San Jose, Calif., USA). The transwell membrane filter inserts contained 6.5-mm diameter, 8-μm pore size, […] polycarbonate membranes. Five-hundred microliter breast cancer cell suspensions were added to the upper side of the inserts at a density of 10×10^4 cells/insert and 750 μl CM with or without other compounds was added to the lower wells. Cells were incubated at 37° C. for 18-20 hr. […] The number of migrated cells in 5 fields of view per insert was counted under a light microscope at magnification 10×.

[2] = test system: MDA-MB-231 cells; test: Soft agar colony formation assay (anchorage independent cell growth); format: cell-based, human; settings: 50 μM compound, about 2 weeks
Procedure: as §1
For anchorage-independent cell growth, MDA-MB-231 cells were plated in 0.4% agarose with complete medium supplemented with 50 μM compound (P1 to P10) on top of a 0.8% agarose base supplemented with complete medium. Cells were maintained for about 2 weeks before staining with p-iodonitrotetrazolium violet (Sigma-Aldrich, St. Louis, Mo.). Images were captured by using a scanner and the numbers of colonies were counted.

[3] = test system: MDA-MB-231 cells; test: Mammary fat pad xenograft assay; format: in vivo; settings: after 15 days; 500 μl of a 400 μM solution, IP three times a week; MDA-MB-231 xenograft in nude mice
Source text: Four-week-old female athymic nude mice (Harlan Sprague-Dawley, Indianapolis, Ind., USA) were used for the mammary fat pad injections. Four- to five-week old female C57bl/6 mice were used for the intratibial injections. Animals were maintained under the care and supervision of the Laboratory Animal Research facility at the University of Texas Health Science Center, San Antonio, Tex. The animal protocol was approved and monitored by the Institutional Animal Care and Use Committee.
MDA-MB-231 cells were injected subcutaneously in the mammary fat pad of 4-week-old female nu/nu athymic nude mice. Each mouse received bilateral subcutaneous inoculation in both the left and right inguinal mammary fat pad areas with 100 μl of cell suspension containing ˜1×10^7 cells/ml in serum-free media. Animals were randomly assigned to 3 different groups, and solid tumors were allowed to form up to about 5 mm^3 volume before treatments began. Compound P3 400 μmol/500 μl saline, or saline as a control was administered intraperitoneally (IP) three times a week for 3 weeks. The growth of xenograft tumors was monitored twice a week and tumor size was measured with a caliper in two dimensions. Tumor volumes were calculated with the equation V=(L×W^2)×0.5 (mm^3), where L is length and W is width of a tumor.

Structure (SMILES) | inhibitory effects on cell migration [1] | decrease in cell colonies as compared to control [2] | reduction in the tumor size compared to control mice [3]
CCCn1c(=O)c2nc(-c3ccc(OCc4nc5cc(C)ccc5[nH]4)cc3)[nH]c2n(CCC)c1=O [Compound P5] | inhibitory effects | – | –
CCOc1ccc(-c2nc3c(N)ncnc3n2CC2CCC2)cc1 [Compound P9] | inhibitory effects | – | –
CCCn1c(=O)c2nc(-c3ccc(OCc4nc5ccccc5[nH]4)cc3)[nH]c2n(CCC)c1=O [Compound P2] | inhibitory effects | 30% | –
CCCn1c(=O)c2nc(-c3ccc(OCc4nc5cc(C(F)(F)F)ccc5[nH]4)cc3)[nH]c2n(CCC)c1=O [Compound P3] | inhibitory effects | 65% | more than 50%
CCCn1c(=O)c2nc(-c3ccc(OCc4nc5cc(F)ccc5[nH]4)cc3)[nH]c2n(CCC)c1=O [Compound P4] | inhibitory effects | – | –
